Results taken from ChEMBL document CHEMBL1140631, “Carbonic anhydrases as targets for medicinal chemistry” (Bioorg Med Chem, 2007).

target: T1, Carbonic anhydrase 4 (Bos taurus, UniProt Q95323)
T1 sequence (Q95323 whole entry): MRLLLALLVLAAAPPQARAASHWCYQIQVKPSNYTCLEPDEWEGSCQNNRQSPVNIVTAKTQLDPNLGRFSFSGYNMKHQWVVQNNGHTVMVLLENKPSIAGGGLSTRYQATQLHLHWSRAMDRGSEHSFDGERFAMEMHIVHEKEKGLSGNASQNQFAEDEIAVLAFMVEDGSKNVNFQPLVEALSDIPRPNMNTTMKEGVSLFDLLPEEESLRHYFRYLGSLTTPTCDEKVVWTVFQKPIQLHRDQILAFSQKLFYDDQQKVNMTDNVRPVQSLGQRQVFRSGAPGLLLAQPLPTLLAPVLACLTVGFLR

SMILES | Ki
NC(=O)Nc1ccc(S(=O)(=O)Nc2ccc(S(N)(=O)=O)cc2)cc1 | 20 nM
NS(=O)(=O)c1ccc(CC/N=C/c2ccncc2)cc1 | 12 nM
NS(=O)(=O)c1nnc(NC(=O)Nc2ccc(Cl)c(Cl)c2)s1 | 8 nM
NS(=O)(=O)c1ccc(CC/N=C/c2cccc([N+](=O)[O-])c2)cc1 | 140 nM
Cn1cccc1/C=N/CCc1ccc(S(N)(=O)=O)cc1 | 8 nM
NS(=O)(=O)c1ccc(CC/N=C/c2ccc[nH]2)cc1 | 10 nM
NS(=O)(=O)c1ccc(CCNC(=S)Nc2ccccc2)cc1 | 70 nM
NS(=O)(=O)c1ccc(CCNC(=S)NC(=O)Nc2ccc(Cl)c(Cl)c2)cc1 | 24 nM
NC(=O)Nc1ccc(S(=O)(=O)Nc2cccc(S(N)(=O)=O)c2)cc1 | 25 nM
Cc1ccc(S(=O)(=O)NC(=O)Nc2c(S(N)(=O)=O)cc(S(N)(=O)=O)c(Cl)c2Cl)cc1 | 14 nM
NS(=O)(=O)c1ccc(CC/N=C/c2ccccc2OC(=O)NS(=O)(=O)c2ccc(Cl)cc2)cc1 | 160 nM
Cn1cccc1/C=N/Cc1ccc(S(N)(=O)=O)cc1 | 10 nM
Cc1ccc(S(=O)(=O)NC(=O)Oc2ccccc2/C=N/CCc2ccc(S(N)(=O)=O)cc2)cc1 | 120 nM
NS(=O)(=O)c1ccc(CC/N=C/c2ccccc2OC(=O)NS(=O)(=O)c2ccccc2)cc1 | 11 nM
